Laboratory results reported in paper PMC6746701, “A phyB-PIF1-SPA1 kinase regulatory complex promotes photomorphogenesis in Arabidopsis” (Nature Communications, 2019).

T1: SPA1-Kin (Arabidopsis thaliana, UniProt Q9SYX2, R517E, form not given)
T1 sequence (Q9SYX2 1-545 R517E limits assumed): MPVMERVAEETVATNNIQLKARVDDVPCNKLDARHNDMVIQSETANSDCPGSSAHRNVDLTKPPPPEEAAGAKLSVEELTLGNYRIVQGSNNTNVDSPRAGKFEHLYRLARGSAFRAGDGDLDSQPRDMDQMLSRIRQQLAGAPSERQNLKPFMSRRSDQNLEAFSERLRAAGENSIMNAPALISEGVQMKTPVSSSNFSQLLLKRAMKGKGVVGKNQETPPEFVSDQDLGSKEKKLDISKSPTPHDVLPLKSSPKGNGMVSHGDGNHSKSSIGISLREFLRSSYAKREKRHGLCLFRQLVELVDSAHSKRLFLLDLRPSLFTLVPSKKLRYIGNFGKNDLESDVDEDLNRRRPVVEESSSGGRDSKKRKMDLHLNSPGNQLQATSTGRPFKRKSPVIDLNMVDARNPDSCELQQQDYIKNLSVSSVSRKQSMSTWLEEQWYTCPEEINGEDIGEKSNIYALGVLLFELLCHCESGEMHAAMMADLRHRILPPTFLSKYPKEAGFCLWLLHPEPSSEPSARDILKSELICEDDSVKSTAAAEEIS

T2: full-length SPA1 (Arabidopsis thaliana, UniProt Q9SYX2)
T2 construct: full length, strep-tagged (3x Flag also cloned), Pichia pastoris GS115, tags kept
T2 sequence (Q9SYX2 1-1029): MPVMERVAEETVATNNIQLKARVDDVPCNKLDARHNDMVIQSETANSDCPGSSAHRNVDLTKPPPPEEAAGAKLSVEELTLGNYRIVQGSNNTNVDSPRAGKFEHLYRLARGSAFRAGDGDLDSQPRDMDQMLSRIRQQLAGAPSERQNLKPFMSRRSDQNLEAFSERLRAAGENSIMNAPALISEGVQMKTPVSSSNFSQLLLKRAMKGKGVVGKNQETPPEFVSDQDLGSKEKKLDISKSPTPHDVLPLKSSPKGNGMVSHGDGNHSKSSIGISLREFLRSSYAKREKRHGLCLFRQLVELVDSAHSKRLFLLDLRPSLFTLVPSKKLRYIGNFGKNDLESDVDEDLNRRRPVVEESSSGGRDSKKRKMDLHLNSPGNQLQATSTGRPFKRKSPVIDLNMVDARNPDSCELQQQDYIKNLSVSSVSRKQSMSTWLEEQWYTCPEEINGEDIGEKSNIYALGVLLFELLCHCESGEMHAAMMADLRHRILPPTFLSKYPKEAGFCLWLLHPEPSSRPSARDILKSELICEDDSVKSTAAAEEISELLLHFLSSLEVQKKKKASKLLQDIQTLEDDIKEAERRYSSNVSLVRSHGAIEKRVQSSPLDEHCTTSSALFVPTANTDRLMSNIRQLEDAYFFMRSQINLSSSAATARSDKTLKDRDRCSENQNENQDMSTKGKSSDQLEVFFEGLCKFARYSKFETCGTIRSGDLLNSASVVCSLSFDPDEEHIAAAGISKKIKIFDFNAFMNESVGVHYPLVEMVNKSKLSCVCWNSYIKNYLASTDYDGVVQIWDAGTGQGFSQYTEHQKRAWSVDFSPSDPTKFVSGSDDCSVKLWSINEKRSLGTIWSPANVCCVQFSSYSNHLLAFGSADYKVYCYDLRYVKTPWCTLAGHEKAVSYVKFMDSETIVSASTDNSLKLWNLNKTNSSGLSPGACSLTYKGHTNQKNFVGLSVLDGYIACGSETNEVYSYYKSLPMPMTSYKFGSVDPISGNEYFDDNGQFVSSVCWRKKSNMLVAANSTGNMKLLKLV

T3: Arabidopsis phytochrome B holoprotein purified from Pichia pastoris (Arabidopsis, UniProt P14713 1-1172, phycocyanobilin chromophore assembled)
T3 construct: phytochrome B (phyB), Arabidopsis; also called phyB; Pfr form of phyB; source: Pichia pastoris GS115, purified (ammonium sulfate, Strep-Tactin Sepharose)
T3 sequence (looked up): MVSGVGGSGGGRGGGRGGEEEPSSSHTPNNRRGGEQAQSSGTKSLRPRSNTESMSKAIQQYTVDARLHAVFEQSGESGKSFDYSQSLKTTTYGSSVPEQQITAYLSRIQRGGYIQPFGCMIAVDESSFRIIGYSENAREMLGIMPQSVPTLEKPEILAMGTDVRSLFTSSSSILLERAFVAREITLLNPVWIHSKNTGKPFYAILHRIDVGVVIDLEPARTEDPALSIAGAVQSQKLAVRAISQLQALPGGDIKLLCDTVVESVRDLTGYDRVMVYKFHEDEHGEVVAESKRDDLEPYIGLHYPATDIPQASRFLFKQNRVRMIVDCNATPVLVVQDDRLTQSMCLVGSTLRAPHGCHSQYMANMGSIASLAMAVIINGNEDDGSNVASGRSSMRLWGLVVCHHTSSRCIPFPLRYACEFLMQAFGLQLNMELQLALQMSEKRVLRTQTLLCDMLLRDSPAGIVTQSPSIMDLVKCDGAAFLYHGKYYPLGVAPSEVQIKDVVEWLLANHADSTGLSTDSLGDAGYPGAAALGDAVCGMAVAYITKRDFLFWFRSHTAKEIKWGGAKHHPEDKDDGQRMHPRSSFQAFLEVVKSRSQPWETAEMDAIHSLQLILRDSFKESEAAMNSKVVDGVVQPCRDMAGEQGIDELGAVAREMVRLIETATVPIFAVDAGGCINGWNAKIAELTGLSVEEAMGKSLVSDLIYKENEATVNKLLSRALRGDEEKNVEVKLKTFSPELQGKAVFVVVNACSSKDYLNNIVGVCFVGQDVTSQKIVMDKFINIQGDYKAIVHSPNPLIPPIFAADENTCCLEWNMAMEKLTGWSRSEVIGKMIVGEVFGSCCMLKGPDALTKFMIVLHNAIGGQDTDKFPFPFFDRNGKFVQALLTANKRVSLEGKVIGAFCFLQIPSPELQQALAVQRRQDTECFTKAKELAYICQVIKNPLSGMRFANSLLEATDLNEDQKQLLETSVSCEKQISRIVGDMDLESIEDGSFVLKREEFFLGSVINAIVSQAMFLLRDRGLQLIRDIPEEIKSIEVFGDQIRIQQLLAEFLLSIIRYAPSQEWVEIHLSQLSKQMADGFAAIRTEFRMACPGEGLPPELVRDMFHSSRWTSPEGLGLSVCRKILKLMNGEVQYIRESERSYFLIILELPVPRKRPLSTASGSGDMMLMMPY


Legend:
SPA1-Kin = target: T1, SPA1-Kin; experiment: in vitro autophosphorylation assay, autoradiogram; assay type: biochemical; conditions: 10 mM MgCl2, pH 7.5, 28 °C; labelled compound (gamma-32P)
full-length SPA1 = target: T2, full-length SPA1; experiment: in vitro kinase assay, autoradiogram; assay type: biochemical; conditions: GST-PIF1 as co-substrate, ATP 0.004-2.5 mM, 10 mM MgCl2, pH 7.5, 28 °C; labelled compound (gamma-32P)
[1] = target: T3, Arabidopsis phytochrome B holoprotein …; experiment: pull-down; tripartite complex: 2 µg GST-PIF1-strep on GST agarose beads, 1-2 µg purified phyB from Pichia pastoris, with E. coli lysate holding MBP-SPA1; anti-strep blot; conditions: both partners purified

Row | Molecule | in vitro autophosphorylation assay, autoradiogram (SPA1-Kin) | in vitro kinase assay, autoradiogram (full-length SPA1) | binding result [1]
1 | Nc1ncnc2c1ncn2[C@@H]1O[C@H](COP(=O)(O)OP(=O)(O)OP(=O)(O)O)[C@@H](O)[C@H]1O [ATP] | significantly reduced auto-phosphorylation activity for the SPA1-Kin^R517E (mSPA1) mutant | SPA1 also phosphorylated PIF1 in an ATP concentration- and time-dependent manner | 
2 | GST-PIF1-strep (natural protein, Arabidopsis, UniProt Q8GZM7 1-478, looked up, source: E. coli BL21(DE3), purified (Strep-Tactin Sepharose); not shown: GST, N-terminal, kept; Strep tag, C-terminal, kept) MHHFVPDFDTDDDYVNNHNSSLNHLPRKSITTMGEDDDLMELLWQNGQVVVQNQRLHTKKPSSSPPKLLPSMDPQQQPSSDQNLFIQEDEMTSWLHYPLRDDDFCSDLLFSAAPTATATATVSQVTAARPPVSSTNESRPPVRNFMNFSRLRGDFNNGRGGESGPLLSKAVVRESTQVSPSATPSAAASESGLTRRTDGTDSSAVAGGGAYNRKGKAVAMTAPAIEITGTSSSVVSKSEIEPEKTNVDDRKRKEREATTTDETESRSEETKQARVSTTSTKRSRAAEVHNLSERKRRDRINERMKALQELIPRCNKSDKASMLDEAIEYMKSLQLQIQMMSMGCGMMPMMYPGMQQYMPHMAMGMGMNQPIPPPSFMPFPNMLAAQRPLPTQTHMAGSGPQYPVHASDPSRVFVPNQQYDPTSGQPQYPAGYTDPYQQFRGLHPTQPPQFQNQATSYPSSSRVSSSKESEDHGNHTTG |  |  | binds
